Measured values published in ChEMBL document CHEMBL1133493, “N-acylated alpha-(3-pyridylmethyl)-beta-aminotetralin antagoinists of the human neuropeptide Y Y5 receptor” (Bioorg Med Chem Lett, 2000).

Biological target: T1, Neuropeptide Y receptor type 5 (Homo sapiens) (UniProt Q15761)
T1 sequence (whole entry): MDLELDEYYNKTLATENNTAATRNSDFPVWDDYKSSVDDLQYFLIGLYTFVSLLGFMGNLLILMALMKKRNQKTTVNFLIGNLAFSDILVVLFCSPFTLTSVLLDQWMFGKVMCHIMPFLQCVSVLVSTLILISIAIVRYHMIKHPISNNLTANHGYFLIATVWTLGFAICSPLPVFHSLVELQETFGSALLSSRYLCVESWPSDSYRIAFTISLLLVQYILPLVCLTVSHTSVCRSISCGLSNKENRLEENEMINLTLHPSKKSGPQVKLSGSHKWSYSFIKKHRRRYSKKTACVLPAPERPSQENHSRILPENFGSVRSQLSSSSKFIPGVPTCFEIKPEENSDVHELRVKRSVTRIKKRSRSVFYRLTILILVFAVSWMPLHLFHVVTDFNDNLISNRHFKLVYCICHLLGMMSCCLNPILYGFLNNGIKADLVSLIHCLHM
Test: Antagonist potency by inhibition of peptide YY (PYY)-induced incorporation of [35S]GTP-gamma-S into membranes prepared from NPY5 receptor expressing cells, in the presence of 300 nM PYY
Format: functional

SMILES	Kb [nM]
O=C(CN1CCC(n2c(O)nc3ccccc32)CC1)NC1CCc2cc(F)ccc2C1Cc1cccnc1 (stereo unspecified)	21
O=C(CN1CCC(n2c(O)nc3ccccc32)CC1)NC1CCc2cc(O)ccc2C1Cc1cccnc1 (stereo unspecified)	21

Biological target: T2, Neuropeptide Y receptor type 5 (Homo sapiens, UniProt Q15761)
T2 sequence (Q15761 whole entry): T1 sequence (whole entry)
Test: Inhibition of binding of radioligand [125I]PYY to the human Neuropeptide Y receptor type 5, using a stably transfected HEK293 cell line
Format: cell-based

SMILES	IC50 [nM]
O=C(Cc1ccccc1)NC[C@H]1CC[C@H](C(=O)NC2CCc3cc(F)ccc3C2Cc2cccnc2)CC1 (stereo partly specified)	114
O=C(NC[C@H]1CC[C@H](C(=O)NC2CCc3cc(F)ccc3C2Cc2cccnc2)CC1)c1ccccc1 (stereo partly specified)	39
COc1ccc2c(c1)CCC(NC(=O)CN1CCC(n3c(=O)[nH]c4ccccc43)CC1)C2Cc1cccnc1 (stereo unspecified)	75
CC(C)(C)OC(=O)NC1CCN(CC(=O)NC2CCc3cc(F)ccc3C2Cc2cccnc2)C1 (stereo unspecified)	45
O=C(CN1CCC(NC(=O)Nc2ccccc2)CC1)NC1CCc2cc(F)ccc2C1Cc1cccnc1 (stereo unspecified)	236
CC(C)(C)NC(=O)NC1CCN(CC(=O)NC2CCc3cc(F)ccc3C2Cc2cccnc2)CC1 (stereo unspecified)	140
O=C(NC[C@H]1CC[C@H](C(=O)NC2CCc3cc(F)ccc3C2Cc2cccnc2)CC1)Oc1ccccc1 (stereo partly specified)	31
O=C(NC[C@H]1CC[C@H](C(=O)NC2CCc3cc(F)ccc3C2Cc2cccnc2)CC1)Nc1ccccc1 (stereo partly specified)	170
O=C(CN1CCC(NC(=O)Oc2ccccc2)CC1)NC1CCc2cc(F)ccc2C1Cc1cccnc1 (stereo unspecified)	52

Now from value to compound:

IC50 [nM]	SMILES
37	CC(C)(C)OC(=O)NC1CCN(CC(=O)NC2CCc3cc(F)ccc3C2Cc2cccnc2)CC1 (stereo unspecified)
17	CC(C)(C)OC(=O)N[C@H]1CCN(CC(=O)NC2CCc3cc(F)ccc3C2Cc2cccnc2)C1 (stereo partly specified)
25	O=C(CN1CCC(n2c(O)nc3ccccc32)CC1)NC1CCc2cc(F)ccc2C1Cc1cccnc1 (stereo unspecified)
6	O=C(CN1CCC(n2c(O)nc3ccccc32)CC1)NC1CCc2cc(O)ccc2C1Cc1cccnc1 (stereo unspecified)
22	O=C(CN1CCC(n2c(=O)[nH]c3ccccc32)CC1)NC1CCc2ccccc2C1Cc1cccnc1 (stereo unspecified)
26	O=C(CN1CC[C@H](NC(=O)c2ccccc2)C1)NC1CCc2cc(F)ccc2C1Cc1cccnc1 (stereo partly specified)
16	CC(C)(C)OC(=O)NC[C@H]1CC[C@H](C(=O)NC2CCc3cc(F)ccc3C2Cc2cccnc2)CC1 (stereo partly specified)
30	CC(C)(C)OC(=O)N[C@@H]1CCN(CC(=O)NC2CCc3cc(F)ccc3C2Cc2cccnc2)C1 (stereo partly specified)
28	O=C(CN1CCC(NC(=O)c2ccccc2)CC1)NC1CCc2cc(F)ccc2C1Cc1cccnc1 (stereo unspecified)
36	O=C(Cc1ccccc1)NC1CCN(CC(=O)NC2CCc3cc(F)ccc3C2Cc2cccnc2)CC1 (stereo unspecified)
